Results from paper PMC12304826, “Redirecting the Peptide Cleavage Causes Protease Inactivation” (Angewandte Chemie (International Ed. in English), 2025).

Biological target: T1, human cathepsin K (Homo sapiens, UniProt P43235)
T1 construct: purchased Enzo Life Sciences, Lörrach, Germany
T1 sequence (P43235 115-329): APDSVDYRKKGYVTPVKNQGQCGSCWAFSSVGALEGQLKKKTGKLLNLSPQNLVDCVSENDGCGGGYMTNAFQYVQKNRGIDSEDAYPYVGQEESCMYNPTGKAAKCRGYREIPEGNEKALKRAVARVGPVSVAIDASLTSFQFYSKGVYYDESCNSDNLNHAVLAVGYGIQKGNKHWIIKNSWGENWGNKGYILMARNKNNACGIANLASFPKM
Assay: Cathepsin K inhibition assay (Cbz-Leu-Arg-AMC)
Format: biochemical
Settings: 20 µM inhibitor, 60 min; read-out: Residual activity @ 20 µM (%) Cat K
Method: 1. Enzyme Inhibition Assays and Kinetic Data of Inhibition of Cathepsins B, L, K and S General. Human cathepsins were assayed either fluorimetrically or spectrophotometrically as noted below. The 10 mM inhibitor solutions were prepared in DMSO. The final concentration of DMSO in all assays was 2%. Non-linear regressions were conducted with GraFit 5. Residual cathepsin activity at an inhibitor concentration of 20 µM was determined from duplicate measurements based on the product formation after 60 min. Concentration dependent measurements were performed in duplicate measurements with five different inhibitor concentrations when the residual cathepsin activity in the presence of 20 µM inhibitor was below 70% (cathepsin B) or below 50% (cathepsins cathepsins L, K, and S). Progress curves were monitored for 60 min. First-order rate constants, kobs, were determined by non-linear regression following the equation [P] = vi × (1 – exp(-kobs × t))/kobs + d, where [P] is the product concentration, vi is the initial product formation rate, kobs is the observed first-order rate constant, and d is the offset. Mean values of kobs were plotted versus corresponding inhibitor concentrations [I], and second-order rate constants of inactivation, kinac/Ki, were obtained by linear regression. The equation kobs/[I] = (kinac/Ki)/(1 + [S]/Km) was used, where [S] is the substrate concentration and Km is the Michaelis-Menten constant. Standard errors (SE) refer to the linear regression. […] Cathepsin K inhibition assay.[1] Human recombinant cathepsin K (Enzo Life Sciences, Lörrach, Germany) was assayed fluorimetrically on a Monaco Safas spectrofluorometer flx or a Fluostar OPTIMA plate reader (BMG Labtech, Ortenberg, Germany). The wavelength for excitation was 360 nm and for emission 440 nm. The reactions were followed at 25 °C. A human cathepsin K stock solution of 23 µg/mL in 50 mM sodium acetate pH 5.5, 50 mM NaCl, 0.5 mM EDTA, 5 mM DTT was diluted 1:100 with assay buffer (100 mM sodium citrate pH 5.0, 100 mM NaCl, 1 mM EDTA, 0.01% CHAPS) containing 5 mM DTT and incubated for 30 min at 37 °C. A 10 mM stock solution of the 7-amino-4-methyl-coumarin (AMC)-based fluorogenic substrate Cbz-Leu-Arg-AMC was prepared in DMSO. The final concentration of the substrate was 40 μM (= 13.3 Km). When using the spectrofluorometer, into a cuvette containing 960 μL assay buffer, inhibitor solution and DMSO in a total volume of 16 μL, and 4 μL of the substrate solution were added and mixed. The reaction was initiated by adding 20 µL of the cathepsin K solution. When using the plate reader, into a well containing 192 µL assay buffer, inhibitor solution and DMSO in a total volume of 3.2 µL and 0.8 µL of the substrate solution were added and mixed. The reaction was initiated by adding 4 µL of the cathepsin K solution.
Cathepsin S inhibition assay.[2] […]
DTT, 0.5% Triton X-100 and 30% glycerol was diluted 1:100 with a 50 mM sodium phosphate buffer pH 6.5, 50 mM NaCl, 2 mM EDTA, 0.01% Triton X-100 and 5 mM DTT and incubated for 60 min at 37 °C. A 10 mM stock solution of the fluorogenic substrate Cbz-Phe-Arg-AMC was prepared in DMSO.
The assay was performed with a final substrate concentration of 40 µM (= 0.74 Km). When using the spectrofluorometer, into a cuvette containing 920 μL assay buffer, inhibitor solution and DMSO in a total volume of 16 μL, and 4 μL of the substrate solution were added and mixed. The reaction was initiated by adding 60 μL of the cathepsin S solution. When using the plate reader, into a well containing 188 µL assay buffer, inhibitor solution and DMSO in a total volume of 3.2 µL and 0.8 µL of the substrate solution were added and mixed. The reaction was initiated by adding […] of the cathepsin S solution.

For `CC(C)CC(C(=O)NC(Cc1ccccc1)C(=O)O)N(C)C(=O)Oc1ccc(Cl)cc1` (stereo not shown) [Compound 14], the remaining activity at 20 µM was 76%.
